Values after ≈ are worked out from the molar mass of the structure shown. Values joined by “and” are separate entries in the source; they are usually repeats but may differ in a detail not shown here. Equal entries are not always repeated. “Also recorded” adds a separate entry of the source. Structures can show the parent of a compound that is named as a salt. Where two headings read alike, the source gives them in different places.
Assays:
[1] = Thermodynamic solubility in ultrapure water; type: physicochemical
Description: The solubility of 1·HCl in water was determined at 25 ± 0.5 °C by adding 30 mg to ultrapure water (3 mL) in screw-capped glass vials, giving a suspension where a solid precipitate could be observed at all timepoints. The samples were ultrasonicated for 3 min before being rotated in a temperature-controlled Incubator Hood TH 30 (Edmund Bühler, Bodelshausen, Germany). Sample aliquots of 600 µL were withdrawn after 30, 48, and 74 h and transferred to Eppendorf tubes. The samples were centrifuged at 19,000g for 15 min using a MiniSpin Plus (Eppendorf, Hamburg, Germany) and the supernatant filtered through a 0.45 µm PVDF filter (Ø = 4 mm, Phenomenex) with the first 400 µL being discarded. Samples were diluted with ultrapure water before measurement by a UV spectrophotometry at 241 nm using 10 mm micro quartz cuvettes (Hellma GmbH & Co. KG, Müllheim, Germany) and a Cary 60 UV–vis spectrophotometer (Agilent Technologies). Cary WinUV Simple Reads Application (Version 5.0.0, Agilent Technologies) was used for instrument control and data collection. The experiment was performed in triplicate.

[2] = Stability in solution (HPLC peak areas); type: physicochemical
Description: The stability of 1 was determined in 67 mM sodium phosphate buffer (pH 7.40, I = 0.18 M) and water at 25 ± 0.5 °C. The solutions comprising 0.2 mg/mL of 1·HCl were kept in a temperature-controlled incubator, and samples were measured by HPLC immediately after sample preparation as well as after one and four weeks for the experiments in phosphate buffer and after four weeks for experiments in ultrapure water. The stability of 1 was assessed based on peak areas. The experiment was performed in triplicate.
(§1) Samples from distribution coefficient and stability experiments were analyzed using an Agilent 1260 Infinity system (Agilent Technologies, Santa Clara, CA, USA) equipped with a column oven (Mikrolab Aarhus, Højbjerg, Denmark) and an Agilent 1100 series system (Agilent Technologies), respectively. Reversed-phase chromatography was performed using a Gemini C18 column (150 × 4.60 mm, 5 µm) with a Gemini C18 precolumn (4 × 3.00 mm, Phenomenex, Torrance, CA, USA). Detection was performed at 241 nm, the column temperature was 30 °C, the injection volume was 10 µL, and the flow rate was 1 mL/min. The mobile phase consisted of acetonitrile and 0.1% phosphoric acid in the ratios 35:65 and 25:75, v/v for the distribution coefficient and stability experiments, respectively. The ChemStation software (Version B.04.03, Agilent Technologies) was used for instrument control and data collection.

[3] = system: MDCK; conditions: MDCK assay, cited from earlier work
[4] = Apparent pKa by spectrophotometric titration (inForm, Sirius); type: physicochemical; conditions: for pKa: concentration-based, 30.8 °C, I = 0.172 M
Description: The molar absorption coefficients and apparent pKa values of 1 were determined by spectrophotometry using an inForm instrument from Sirius Analytical (Forest Row, UK). Molar absorption coefficients (absorbance), as a function of the wavelength (185–750 nm) and pH in the interval 2.0–12.0, were determined at 30.8 °C. A stock solution (5.0 mM) of 1·HCl in N-methyl-2-pyrrolidone (NMP) was added to 36 mL of an ionic strength-adjusted buffer solution (I = 0.172 M) containing acetate, phosphate, and sodium chloride while stirring at 300 rpm. The concentration of 1 during measurements ranged from 13–27 µM (three experiments each with three titrations were performed). Potentiometric titrations from high to low pH and low to high pH were performed by addition of 0.50 M HCl and 0.50 M NaOH, respectively, while UV–vis spectra were recorded using the fiber optic probe (10 mm light path) of the inForm diode array spectrometer. The instrument control and data analysis were performed using the inForm software Version 1.1.3.6 (Sirius Analytical, Forest Row, UK).

[5] = Octanol/buffer distribution coefficient (logD); type: physicochemical; conditions: 25 °C
Description: The pH-dependent octanol/buffer distribution coefficients of 1 were determined at 25 ± 0.5 °C using the following buffers: 50 mM sodium citrate (pH 5.00, I = 0.15 M), 67 mM sodium phosphate (pH 7.40, I = 0.18 M), and 50 mM sodium carbonate (pH 9.50, I = 0.15 M). The ionic strength of the buffers was adjusted by adding a calculated amount of potassium chloride. The octanol phases were saturated with the appropriate buffer solution, and vice versa, before the start of the experiment. Solutions of 2, 0.5, and 0.1 mg/mL of the drug in the buffer solutions at pH 5.00, 7.40, and 9.50, respectively, were prepared. The organic phase was hereafter added to the buffer solution in a ratio of 1:9 at pH 5.00 and 7.40 and 1:19 at pH 9.50. The samples were rotated for 24 h in a temperature-controlled incubator at 25 °C. The concentration of 1 in the buffer solution before and after partitioning, ci and cw, respectively, was determined by HPLC, from which distribution coefficients, D, were calculated according to
where Vw and Vo are the volume of the buffer solution and organic phase, respectively. Each experiment was conducted in triplicate.
as §1

[6] = in vivo, rodents; maximal brain exposure rapidly attained; cited from earlier work
[7] = buffer at pH 7.4; cited from earlier work
[8] = pH 7.4, calculated species distribution

SMILES | pH of saturated solution in water ([1]; saturated solution of 1·HCl in ultrapure water) | solubility thermodynamic ([1]; ultrapure water, 25 °C, pH 6.24, water, thermodynamic from solid) [µg/mL] | kinetic solubility ([1]; water, preparing 5 mg/mL requires shaking for several minutes) | stability in solution in phosphate buffer ([2]; phosphate buffer pH 7.4, 25 °C, 4 weeks) | stability in water ([2]; water, 25 °C, 4 weeks (1 month)) | permeability apical–basal ([3]; apical–basal) [×10⁻⁶ cm/s] | permeability basal–apical ([3]; basal–apical) [×10⁻⁶ cm/s] | pKa ([4]; read-out: apparent pKa (phenol)) | pKa ([4]; read-out: apparent pKa (protonated amine)) | fraction present in the protonated form ([4]; pH 6.24, saturated solution of 1·HCl in ultrapure water) [%] | fraction present as the neutral species [4, 8] [%] | fraction present in the protonated form [4, 8] | fraction present as the neutral species ([4]; pH 9.5, calculated species distribution) [%] | logD at 24 h ([5]; pH 5.00, octanol/50 mM sodium citrate) | logD at 24 h ([5]; pH 7.4, pH 7.40, octanol/67 mM sodium phosphate) | logD at 24 h ([5]; pH 9.5, pH 9.50, octanol/50 mM sodium carbonate) | BBB permeability [6] | solubility in buffer [7] [µg/mL]
COc1cc(CCNCc2ccccc2O)c(OC)cc1C#N [1·HCl, 25CN-NBOH·HCl] | 6.24 ± 0.01 and 6.24 | 8500 ± 300 | low | stable | could not detect additional species; also recorded: stable | – | – | – | – | – | – | – | – | – | – | – | – | –
COc1cc(CCNCc2ccccc2O)c(OC)cc1C#N [Compound 1, 25CN-NBOH] | – | – | – | – | – | 29 | 20 | 10.7 ± 0.1 | 8.4 ± 0.1 | > 99 | ~10 | approximately 90% | 87 | -0.76 ± 0.01 | 1.59 ± 0.02 | 2.58 ± 0.01 | excellent BBB permeability | 400 (≈ 1280 µM)

Reference: PMC12834051, “Improved synthesis and physicochemical characterization of the selective serotonin 2A receptor agonist 25CN-NBOH” (Beilstein Journal of Organic Chemistry, 2026)
